{"source": "paper PMC7071076", "about": "“Antibacterial Activity and Pharmacokinetic Profile of a Promising Antibacterial Agent: 22-(2-Amino-phenylsulfanyl)-22-Deoxypleuromutilin” (Molecules, 2020)", "key": {"[1]": {"test_system": "E. coli ATCC 25922", "assay": "MIC testing (broth dilution, 96-well plate)", "format": "cell-based", "conditions": "Escherichia coli, ATCC25922", "description": "(§1) The MIC of amphenmulin against MRSA, Escherichia coli, Salmonella typhimurium, Enterococcus faecalis, and Enterococcus faecium were determined using tiamulin as controls. MIC values were measured by the method of previous work. Staphylococcus aureus ATCC 29213 was used as the quality control bacteria, and the quality control range was referred to the Clinical and Laboratory Standards Institute (CLSI). The bacteria solution was diluted to ~10^6 CFU/mL with Mueller–Hinton (MH) broth for MRSA, Escherichia coli and Salmonella typhimurium while Trypticase Soy Broth for Enterococcus faecalis and Enterococcus faecium. Drugs were dissolved in an aqueous solution of N, N-dimethylformamide (DMF) at a concentration of 2560 µg/mL, and then diluted with broth to prepare working solution (1280 µg/mL). The drug susceptibility testing was performed in 96-well plate. A total of 20 µL of working solution was added into column 1 and well mixed as a 10-fold dilution, following which Serial 2-fold dilutions were prepared to provide concentration ranges of 128–0.0078 µg/mL. Blank broth (no cultures) and bacteria solution (drugs replaced by blank solvent) were set as drug-free controls. Each 96-well plate was cultured at 37 °C for 24 h. The MIC value is the lowest concentration of amphenmulin which inhibits the visible growth of bacteria. The experiment was repeated three times."}, "[2]": {"test_system": "E. faecium ATCC 35667", "assay": "MIC testing (broth dilution, 96-well plate)", "format": "cell-based", "conditions": "Enterococcus faecium, ATCC35667", "description": "as §1"}, "[3]": {"test_system": "E. faecalis ATCC 29212", "assay": "MIC testing (broth dilution, 96-well plate)", "format": "cell-based", "conditions": "Enterococcus faecalis, ATCC29212", "description": "as §1"}, "[4]": {"test_system": "S. typhimurium ATCC 14028", "assay": "MIC testing (broth dilution, 96-well plate)", "format": "cell-based", "conditions": "Salmonella enterica", "description": "as §1"}, "[5]": {"test_system": "S. aureus ATCC 29213", "assay": "MIC testing (broth dilution, 96-well plate)", "format": "cell-based", "conditions": "Staphylococcus aureus, ATCC29213", "description": "as §1"}, "[6]": {"test_system": "MRSA ATCC 43300", "assay": "MRSA wound infection model: wound size", "format": "in vivo, mice", "conditions": "after treatment for three days; 100 μL drug (3 mg/mL) on the wound", "description": "(§2) Six weeks SPF-ICR female mice were used for this study. The Experimental model, inducted of inflammatory in mice by skin excision, was established referring to existing methods with some alterations. The mice were anesthetized with the intravenous injection of 1% sodium pentobarbital. After their hair on the back was shaved, the mice were anesthetized and the back skin was perforated with a biopsy perforator at a depth of fascia injury. The inoculum (50 μL), containing 10^9 CFU/mL of the indicated microorganism (MRSA ATCC 43300), was applied on the wound for three times at 30 min intervals. 100 μL drug (3 mg/mL) was administrated on the wound at 1 h after inoculation for three consecutive days. A total of 100 μL blank matrix was given to the infected control group and the non-infected group in the same way. The wound was wrapped with sterile gauze. During the treatment, all mice were kept individually and free to eat and drink.\nThe wounds were examined on day 1 and days 3 after treatment. The area of wound were measured according to previous reports with some modifications. In each group, six mice were taken out and anesthetized to take photos and measure the size of the wound as the results."}, "[7]": {"test_system": "IL-6", "assay": "MRSA wound infection model: serum cytokine ELISA", "format": "in vivo, mice", "conditions": "three days after treatment (method: 24 h), p < 0.05", "description": "as §2\n(§3) After administration for 24 h, blood samples were collected from the ocular venous plexus and were prepared to serum samples as previously described. The contents of IL-6, TNF-α, and MCP-1 in serum were detected using ELISA kits according to the instruction. All ELISA kits were purchased from Shanghai Enzyme-linked Biotechnology Co., Ltd. (Shanghai, China)."}, "[8]": {"test_system": "MCP-1", "assay": "MRSA wound infection model: serum cytokine ELISA", "format": "in vivo, mice", "conditions": "three days after treatment (method: 24 h), p < 0.05", "description": "as §2, §3"}, "[9]": {"test_system": "TNF-α", "assay": "MRSA wound infection model: serum cytokine ELISA", "format": "in vivo, mice", "conditions": "three days after treatment (method: 24 h), p < 0.05", "description": "as §2, §3"}, "[10]": {"assay": "Acute oral toxicity study", "conditions": "both sexes, KM, mouse, in vivo, 5000 mg/kg; mice, oral (gavage), single dose", "description": "(§4) The acute toxicity test mainly referred to the previous reports with some modifications. Seven male and seven female KM mice in SPF grade were used for this study. Amphenmulin was formulated in DMSO and given in a single- dose at 5000 mg/kg by gavage, while the control group were given DMSO without drug. […] The median lethal dose (LD50) was calculated by modified Karber method on day 15. The experiment was repeated twice."}, "[11]": {"test_system": "KM mice", "assay": "Acute oral toxicity study", "conditions": "mouse, in vivo, 5000 mg/kg", "description": "as §4"}, "[12]": {"test_system": "MRSA ATCC 43300", "assay": "Constant concentration time-kill curves", "format": "cell-based, Staphylococcus aureus", "description": "Time–kill curve experiments were performed in triplicate according previous report. In this experiment, MRSA, in logarithmic phase, was diluted to 10^6 CFU/mL with MH broth. […] The mixtures and control which was free of drug were cultured at 37 °C with shaking. A total of 20 µL aliquots from solutions were serially diluted 10-fold in 0.9% saline, at different time intervals (0, 3, 6, 9, and 24 h). Then the dilutions were plated onto MH agar medium and incubated at 37 °C for 18–24 h. The bacterial colonies were counted, and results were represented as the logarithm of the colony numbers. The time-kill curve was constructed by plotting log CFU/mL versus time."}, "[13]": {"test_system": "MRSA ATCC 43300", "assay": "MRSA wound infection model: wound bacterial burden", "format": "in vivo, mice", "description": "as §2\nAt the end of the examination, mice were anesthetized and killed. Tissue samples, reaching to the muscle membrane, were removed from the middle of the wound surface and homogenized in 0.9% saline. Serially diluted aliquots of homogenate were cultured on high-salt mannitol agar plate at 37 °C for 24 h. The log of the colony number was used for statistical analysis."}}, "data": [{"smiles": "C=C[C@]1(C)C[C@@H](OC(=O)CSc2ccccc2N)[C@]2(C)[C@H](C)CC[C@]3(CCC(=O)[C@H]32)[C@@H](C)[C@@H]1O", "note": "[Amphenmulin, 22-(2-amino-phenylsulfanyl)-22-deoxypleuromutilin]", "values": [{"measurement": "MIC", "setting": "[1]", "value": "> 128", "unit": "µg/mL"}, {"measurement": "MIC", "setting": "[2]", "value": 0.125, "unit": "µg/mL"}, {"measurement": "MIC", "setting": "[3]", "value": "> 128", "unit": "µg/mL"}, {"measurement": "MIC", "setting": "[4]", "value": "> 128", "unit": "µg/mL"}, {"measurement": "MIC", "setting": "[5]", "value": 0.0156, "unit": "µg/mL"}, {"measurement": "wound area", "setting": "[6]", "value": "0.47 ± 0.09", "unit": "cm^2"}, {"measurement": "IL-6 in the serum vs infection group", "setting": "[7]", "value": "significantly decreased"}, {"measurement": "MCP-1 in the serum vs infection group", "setting": "[8]", "value": "significantly decreased"}, {"measurement": "TNF-α in the serum vs infection group", "setting": "[9]", "value": "significantly decreased"}, {"measurement": "LD50 at 14 days", "setting": "[10]", "value": "> 5000", "unit": "mg/kg"}, {"measurement": "mortality", "setting": "[11]", "value": "No mice died"}, {"measurement": "abnormal symptoms", "setting": "[11]; po", "value": "increase in the heart rate, excitement of some mice and inappetence"}, {"measurement": "colony numbers of MRSA", "setting": "[12]; 0.5×MIC, 3 h", "value": "7.17±0.08", "unit": "log CFU/mL"}, {"measurement": "colony numbers of MRSA", "setting": "[12]; 0.5×MIC, 6 h", "value": "7.83±0.16", "unit": "log CFU/mL"}, {"measurement": "colony numbers of MRSA", "setting": "[12]; 0.5×MIC, 9 h", "value": "8.22±0.15", "unit": "log CFU/mL"}, {"measurement": "colony numbers of MRSA", "setting": "[12]; 0.5×MIC, 24 h", "value": "8.33±0.10", "unit": "log CFU/mL"}, {"measurement": "colony numbers of MRSA", "setting": "[12]; 1×MIC, 3 h", "value": "6.84±0.08", "unit": "log CFU/mL"}, {"measurement": "colony numbers of MRSA", "setting": "[12]; 1×MIC, 6 h", "value": "7.44±0.06", "unit": "log CFU/mL"}, {"measurement": "colony numbers of MRSA", "setting": "[12]; 1×MIC, 9 h", "value": "7.86±0.13", "unit": "log CFU/mL"}, {"measurement": "colony numbers of MRSA", "setting": "[12]; 1×MIC, 24 h", "value": "7.70±0.46", "unit": "log CFU/mL"}, {"measurement": "colony numbers of MRSA", "setting": "[12]; 2×MIC, 3 h", "value": "6.43±0.13", "unit": "log CFU/mL"}, {"measurement": "colony numbers of MRSA", "setting": "[12]; 2×MIC, 6 h", "value": "6.56±0.23", "unit": "log CFU/mL"}, {"measurement": "colony numbers of MRSA", "setting": "[12]; 2×MIC, 9 h", "value": "7.07±0.42", "unit": "log CFU/mL"}, {"measurement": "colony numbers of MRSA", "setting": "[12]; 2×MIC, 24 h", "value": "7.26±0.62", "unit": "log CFU/mL"}, {"measurement": "colony numbers of MRSA", "setting": "[12]; 4×MIC, 3 h", "value": "5.96±0.66", "unit": "log CFU/mL"}, {"measurement": "colony numbers of MRSA", "setting": "[12]; 4×MIC, 6 h", "value": "6.13±0.06", "unit": "log CFU/mL"}, {"measurement": "colony numbers of MRSA", "setting": "[12]; 4×MIC, 9 h", "value": "5.77±0.15", "unit": "log CFU/mL"}, {"measurement": "colony numbers of MRSA", "setting": "[12]; 4×MIC, 24 h", "value": "4.04±0.58", "unit": "log CFU/mL"}, {"measurement": "colony numbers of MRSA", "setting": "[12]; 8×MIC, 3 h", "value": "5.91±0.03", "unit": "log CFU/mL"}, {"measurement": "colony numbers of MRSA", "setting": "[12]; 8×MIC, 6 h", "value": "5.98±0.09", "unit": "log CFU/mL"}, {"measurement": "colony numbers of MRSA", "setting": "[12]; 8×MIC, 9 h", "value": "5.78±0.09", "unit": "log CFU/mL"}, {"measurement": "colony numbers of MRSA", "setting": "[12]; 8×MIC, 24 h", "value": "3.55±0.16", "unit": "log CFU/mL"}, {"measurement": "colony numbers of MRSA", "setting": "[12]; 16×MIC, 3 h", "value": "5.79±0.12", "unit": "log CFU/mL"}, {"measurement": "colony numbers of MRSA", "setting": "[12]; 16×MIC, 6 h", "value": "5.77±0.15", "unit": "log CFU/mL"}, {"measurement": "colony numbers of MRSA", "setting": "[12]; 16×MIC, 9 h", "value": "5.64±0.11", "unit": "log CFU/mL"}, {"measurement": "colony numbers of MRSA", "setting": "[12]; 16×MIC, 24 h", "value": "2.97±0.06", "unit": "log CFU/mL"}, {"measurement": "colony numbers of MRSA", "setting": "[12]; 32×MIC, 3 h", "value": "5.60±0.18", "unit": "log CFU/mL"}, {"measurement": "colony numbers of MRSA", "setting": "[12]; 32×MIC, 6 h", "value": "5.91±0.56", "unit": "log CFU/mL"}, {"measurement": "colony numbers of MRSA", "setting": "[12]; 32×MIC, 9 h", "value": "5.11±0.36", "unit": "log CFU/mL"}, {"measurement": "colony numbers of MRSA", "setting": "[12]; 32×MIC, 24 h", "value": "2.43±0.67", "unit": "log CFU/mL"}, {"measurement": "type of antibacterial activity in time-kill curve", "setting": "[12]; at the concentration of 4× MIC", "value": "bacteriostatic activity"}, {"measurement": "number of bacteria in wound tissue vs infected group", "setting": "[13]; one day after treatment, p < 0.05", "value": "significant decrease"}, {"measurement": "number of bacteria in wound tissue", "setting": "[13]; three days after treatment, 100 μL drug (3 mg/mL) on the wound", "value": "4.47 ± 0.66", "unit": "log10 CFU/mL"}]}]}
